As usually defined, the GI50 is the concentration giving 50% growth inhibition.

For 23 compounds, GI50 results are on record in patent US12558428B2, “Heterobifunctional compounds and their use in treating disease” (Halda Therapeutics OpCo, Inc., priority 2024, dated 2026).

Experiment [1] has as its system T-Rex 293 cells having increased expression of estrogen receptor alpha protein. As to the kind of experiment: Cellular growth inhibition assay, T-Rex 293 cells, (+) doxycycline. Type of experiment: cell-based. As to conditions: T-REx-293, 72 h, Table 7-A; T-Rex 293 cells with doxycycline (increased ERα expression); 72 hours; CellTiter-Glo; read-out: (+) Dox GI50. How it is done:
(§1) Exemplary compounds were tested for the ability to inhibit the proliferation of the following types of cells: (i) a T-Rex 293 cell line having increased expression of estrogen receptor alpha protein from exposure to doxycycline and (ii) a T-Rex 293 cell line lacking increased expression of estrogen receptor alpha protein.
(§2) The following types of cells were prepared for this experiment: (i) a T-Rex 293 cell line having increased expression of estrogen receptor alpha protein from exposure to doxycycline and (ii) a T-Rex 293 cell line lacking increased expression of estrogen receptor alpha protein. The ability of the test compounds to inhibit proliferation of the foregoing cell types was evaluated according to the procedures set forth below.
(§3) The doxycycline-inducible estrogen receptor alpha protein expressing cell line was established using the following protocol: T-Rex 293 cells were purchased from Invitrogen (Cat #R71007) and transfected using Lipofectamine 2000 with the wild-type estrogen receptor alpha protein sequence cloned into the pcDNA4/TO vector. Transfected cells were selected using 400 μg/mL Zeocin (Invitrogen Cat #R25001). Following selection, single clones were raised and maintained in Dulbecco's Modified Eagle Medium (DMEM) supplemented with 10% w/w Tetracycline-free fetal bovine serum (FBS) and 250 μg/mL Zeocin. Clones were analyzed for expression of estrogen receptor alpha protein in the presence and absence of 3 ng/mL doxycycline (Sigma Cat #D9891), and a single doxycycline-inducible clone (hereinafter “SC”) was selected for use in downstream assays.
(§4) The SC cells were seeded on poly-D-lysine coated, black clear-bottom 384-well plates at 2500/well, in 25 μL Phenol Red Free Dulbecco's Modified Eagle Medium (DMEM) supplemented with 10% w/w charcoal-dextran treated fetal bovine serum (FBS) and 1% w/w pen-strep, with or without 3 ng/mL doxycycline. Pen-Strep is a commercially available mixture of penicillin G and streptomycin, which is used in mammalian cell culture media to prevent bacterial contamination. Phenol Red Free Dulbecco's Modified Eagle Medium (DMEM) supplemented with 10% w/w charcoal-dextran treated fetal bovine serum (FBS) and 1% w/w pen-strep, with or without 3 ng/mL doxycycline is herein referred to as Treatment Medium. Following seeding of cells in the plates, the plates were spun at 300×g for 30 seconds, then equilibrated to room temperature for 30 minutes, and then deposited in a humidified tissue culture incubator maintained at 37° C. with 5% CO2.
(§5) At 24 hours after seeding of the cells, dilutions of test compound were prepared in DMSO and dissolved in Treatment Medium, to achieve a final DMSO concentration of 0.5% w/w, thereby providing the Test Compound Solution. A 25 μL aliquot of the Test Compound Solution was added to cells in the well plates. An equal volume of a solution containing DMSO and Treatment Medium was used as a negative control. Following treatment of cells with Test Compound Solution or said equal volume of a solution containing DMSO and Treatment Medium, the plates were spun at 300×g for 30 seconds, and then left in an incubator for 72 hours.
(§6) At the end of the treatment duration, cell viability was quantified with CellTiter-Glo 2.0 reagent (Promega Cat #G9243). For this purpose, plates were equilibrated to room temperature for 30 minutes, and then 25 μL of CellTiter-Glo 2.0 reagent was added to cells in the plate wells. Plates were then agitated on a shaker for two minutes at 500 rpm and subsequently incubated at room temperature for 10 minutes. Following incubation, the plates were spun at 3000×g for 30 seconds, then sealed with an optical adhesive cover, and luminescence readings were measured with an EnVision Plate Reader (Perkin Elmer).
(§7) Data was normalized using zero luminescence for baseline. […]
On the technique in general: ATP-based viability assays read luminescence as a measure of living cells.

The test system of experiment [2] is T-Rex 293 cells lacking increased expression of estrogen receptor alpha protein. As to the kind of experiment: Cellular growth inhibition assay, T-Rex 293 cells, (−) doxycycline. The experiment is classed as cell-based. As to conditions: T-REx-293, 72 h, Table 7-A; T-Rex 293 cells without doxycycline (lacking increased ERα expression); 72 hours; CellTiter-Glo; read-out: (−) Dox GI50. How it is done: as §1, §2, §3, §4, §5, §6, §7

On to `COc1cc(N2CCN(CC3CCN(c4ccc(C5=N[C@@H](C)c6nnc(C)n6-c6sc(C)c(C)c65)cc4)CC3)CC2)c(F)cc1[C@H]1c2ccc(O)cc2CC[C@H]1c1ccc(F)cc1` [III-314], for which the GI50 is 50 to 500 nM in experiment [1] and 500 to 2500 nM in experiment [2].

For `COc1cc(N2CCN(CC3CCN(c4ccc(C5=N[C@@H](C)c6nnc(C)n6-c6sc(C)c(C)c65)c(F)c4)CC3)CC2)ccc1[C@H]1c2ccc(O)cc2CC[C@H]1c1ccc(C)cc1` [III-331], the GI50 in experiment [1] and in experiment [2] was 500 to 2500 nM each time.

In the case of `COc1cc(N2CCN(CC3CCN(c4ccc(C5=N[C@@H](C)c6nnc(C)n6-c6sc(C)c(C)c65)cc4)CC3)CC2)ccc1[C@@H]1c2ccc(O)cc2CC[C@@H]1c1ccc(F)cc1` [III-316], the figures for the GI50 in experiment [1] and in experiment [2] were less than 50 nM and 500 to 2500 nM, respectively.

As to `COc1ccc([C@@H]2CCc3cc(O)ccc3[C@@H]2c2ccc(N3CCN(CC4(O)CCN(c5ccc(C6=N[C@@H](C)c7nnc(C)n7-c7sc(C)c(C)c76)cc5)CC4)CC3)cc2Cl)cc1` (single isomer, unassigned) [III-335], the GI50 in experiment [1] was in the range of 50 to 500 nM; in experiment [2], 500 to 2500 nM.

On to `Cc1sc2c(c1C)C(c1ccc(N3CCC(CN4CCN(c5ccc([C@@H]6c7ccc(O)cc7CC[C@@H]6c6ccccc6F)c(F)c5)CC4)CC3)cc1)=N[C@@H](C)c1nnc(C)n1-2` [III-323], for which the GI50 in experiment [1] is less than 50 nM; in experiment [2], 500 to 2500 nM.

`Cc1sc2c(c1C)C(c1ccc(N3CCC(CN4CCN(c5ccc([C@@H]6c7ccc(O)cc7CC[C@@H]6c6cccc(F)c6)c(F)c5)CC4)CC3)cc1)=N[C@@H](C)c1nnc(C)n1-2` [III-325]: the GI50 in experiment [1] is 50 to 500 nM; in experiment [2] it was 500 to 2500 nM.

With `COc1cc(N2CCN(CC3CCN(c4ccc(C5=N[C@@H](C)c6nnc(C)n6-c6sc(C)c(C)c65)cc4)CC3)CC2)ccc1[C@@H]1c2ccc(O)cc2CC[C@@H]1c1ccc(C)cc1` [III-330], the GI50 in experiment [1] is less than 50 nM; in experiment [2], 50 to 500 nM.

As for `Cc1sc2c(c1C)C(c1ccc(N3CC(N4CCN(CCOc5ccc([C@@H]6c7ccc(O)cc7CC[C@@H]6c6ccccc6)cc5)CC4)C3)cc1)=NC(Cc1ncco1)c1nnc(C)n1-2` (stereo partly shown) [III-41], the values for the GI50 in experiment [1] and in experiment [2] were less than 50 nM and 50 to 500 nM, respectively.

As for `COc1cc(N2CCN(CC3CCN(c4ccc(C5=N[C@@H](C)c6nnc(C)n6-c6sc(C)c(C)c65)cc4)CC3)CC2)ccc1[C@H]1c2ccc(O)cc2CC[C@H]1c1ccc(C)cc1` [III-329], the GI50 in experiment [1] and in experiment [2] was 50 to 500 nM in each case.

Turning to `COc1cc(N2CCN(CC3CCN(c4ccc(C5=N[C@@H](C)c6nnc(C)n6-c6sc(C)c(C)c65)cc4)CC3)CC2)c(F)cc1[C@@H]1c2ccc(O)cc2CC[C@@H]1c1ccc(F)cc1` [III-313], the figures for the GI50 in experiment [1] and in experiment [2] were less than 50 nM and 500 to 2500 nM, respectively.

On to `COc1cc(N2CCN(CC3(O)CCN(c4ccc(C5=N[C@@H](C)c6nnc(C)n6-c6sc(C)c(C)c65)c(F)c4)CC3)CC2)ccc1[C@H]1c2ccc(O)cc2CC[C@H]1c1ccc(F)cc1` (single isomer, unassigned) [III-327], for which the GI50 in experiment [1] and in experiment [2] was 50 to 500 nM in each case.

For `COc1ccc([C@H]2CCc3cc(O)ccc3[C@H]2c2ccc(N3CCN(CC4(O)CCN(c5ccc(C6=N[C@@H](C)c7nnc(C)n7-c7sc(C)c(C)c76)cc5)CC4)CC3)cc2Cl)cc1` (single isomer, unassigned) [III-336], the GI50 was less than 50 nM in experiment [1] and 500 to 2500 nM in experiment [2].

With `COc1cc(N2CCN(CC3(O)CCN(c4ccc(C5=N[C@@H](C)c6nnc(C)n6-c6sc(C)c(C)c65)cc4)CC3)CC2)ccc1[C@H]1c2ccc(O)cc2CC[C@H]1c1ccccc1` (single isomer, unassigned) [III-322], the GI50 in experiment [1] and in experiment [2] was 50 to 500 nM each time.

For the compound `COc1cc(N2CCN(CC3(O)CCN(c4ccc(C5=N[C@@H](C)c6nnc(C)n6-c6sc(C)c(C)c65)c(F)c4)CC3)CC2)ccc1[C@@H]1c2ccc(O)cc2CC[C@@H]1c1ccc(F)cc1` [III-328, 1-(3-fluoro-4-((6S)-2,3,6,9-tetramethyl-6H-thieno[3,2-f][1,2,4]triazolo[4,3-a][1,4]diazepin-4-yl)phenyl)-4-((4-(4-((1S,2S)-2-(4-fluorophenyl)-6-hydroxy-1,2,3,4-tetrahydronaphthalen-1-yl)-3-methoxyphenyl)piperazin-1-yl)methyl)piperidin-4-ol], the GI50 was less than 50 nM in experiment [1] and 500 to 2500 nM in experiment [2].

On to `Cc1sc2c(c1C)C(c1ccc(N3CCC(CN4CCN(c5ccc([C@H]6c7ccc(O)cc7CC[C@H]6c6cccc(F)c6)c(F)c5)CC4)CC3)cc1)=N[C@@H](C)c1nnc(C)n1-2` [III-326], for which the GI50 in experiment [1] and in experiment [2] was 500 to 2500 nM each time.

Consider `Cc1sc2c(c1C)C(c1ccc(N3CCC(O)(CN4CCC(c5cc(F)c([C@H]6c7ccc(O)cc7CC[C@H]6c6ccc(F)cc6)c(F)c5)CC4)CC3)cc1F)=N[C@@H](C)c1nnc(C)n1-2` [III-337, 4-((4-(3,5-difluoro-4-((1R,2R)-2-(4-fluorophenyl)-6-hydroxy-1,2,3,4-tetrahydronaphthalen-1-yl)phenyl)piperidin-1-yl)methyl)-1-(3-fluoro-4-((6S)-2,3,6,9-tetramethyl-6H-thieno[3,2-f][1,2,4]triazolo[4,3-a][1,4]diazepin-4-yl)phenyl)piperidin-4-ol], for which the GI50 in experiment [1] is 50 to 500 nM; in experiment [2] it was 500 to 2500 nM.

Turning to `COc1cc(N2CCN(CC3CCN(c4ccc(C5=N[C@@H](C)c6nnc(C)n6-c6sc(C)c(C)c65)cc4)CC3)CC2)ccc1[C@H]1c2ccc(O)cc2CC[C@H]1c1ccc(F)cc1` [III-315], the GI50 in experiment [1] and in experiment [2] was 500 to 2500 nM throughout.

In the case of `COc1cc(N2CCN(CC3(O)CCN(c4ccc(C5=N[C@@H](C)c6nnc(C)n6-c6sc(C)c(C)c65)cc4)CC3)CC2)ccc1[C@@H]1c2ccc(O)cc2CC[C@@H]1c1ccccc1` (single isomer, unassigned) [III-321], the figures for the GI50 in experiment [1] and in experiment [2] were less than 50 nM and 500 to 2500 nM, respectively.

With `COc1cc(N2CCN(CC3CCN(c4ccc(C5=N[C@@H](C)c6nnc(C)n6-c6sc(C)c(C)c65)c(F)c4)CC3)CC2)ccc1[C@@H]1c2ccc(O)cc2CC[C@@H]1c1ccc(C)cc1` [III-332], the GI50 in experiment [1] was less than 50 nM; in experiment [2], 50 to 500 nM.

As for `COc1cc(N2CCN(CC3(O)CCN(c4ccc(C5=N[C@@H](C)c6nnc(C)n6-c6sc(C)c(C)c65)cc4)CC3)CC2)c(F)cc1[C@H]1c2ccc(O)cc2CC[C@H]1c1ccc(F)cc1` [III-319], the figures for the GI50 in experiment [1] and in experiment [2] were less than 50 nM and 50 to 500 nM, respectively.

With `COc1cc(N2CCN(CC3(O)CCN(c4ccc(C5=N[C@@H](C)c6nnc(C)n6-c6sc(C)c(C)c65)cc4)CC3)CC2)c(F)cc1[C@@H]1c2ccc(O)cc2CC[C@@H]1c1ccc(F)cc1` [III-320], the results for the GI50 in experiment [1] and in experiment [2] were less than 50 nM and 500 to 2500 nM, respectively.

As to `Cc1sc2c(c1C)C(c1ccc(N3CCC(CN4CCN(c5ccc([C@H]6c7ccc(O)cc7CC[C@H]6c6ccccc6F)c(F)c5)CC4)CC3)cc1)=N[C@@H](C)c1nnc(C)n1-2` [III-324], the GI50 in experiment [1] and in experiment [2] was 50 to 500 nM each time.

As to `Cc1sc2c(c1C)C(c1ccc(N3CCC(O)(CN4CCC(c5cc(F)c([C@@H]6c7ccc(O)cc7CC[C@@H]6c6ccc(F)cc6)c(F)c5)CC4)CC3)cc1F)=N[C@@H](C)c1nnc(C)n1-2` [III-338, 4-((4-(3,5-difluoro-4-((1S,2S)-2-(4-fluorophenyl)-6-hydroxy-1,2,3,4-tetrahydronaphthalen-1-yl)phenyl)piperidin-1-yl)methyl)-1-(3-fluoro-4-((6S)-2,3,6,9-tetramethyl-6H-thieno[3,2-f][1,2,4]triazolo[4,3-a][1,4]diazepin-4-yl)phenyl)piperidin-4-ol], the values for the GI50 in experiment [1] and in experiment [2] were less than 50 nM and 500 to 2500 nM, respectively.
